Measured values: patent US8002614B2, “Microbiocidal control in the processing of meat-producing four-legged animals” (priority 2005, dated 2011)

Format: physicochemical
Excerpt: In many high output meat packing plants, space to install the biocide feeder in an easily accessible location is not readily available. The smaller area required for a BCDMH feeder system relative to a DBDMH system, is advantageous with respect to installation flexibility. For example, because of higher bromine output, a plant utilizing BCDMH may utilize a smaller number of biocide feeders than a plant utilizing DBDMH feeders. Also, because each point of application of aqueous biocide in the plant requires a certain bromine residual in a certain flow of water, the much higher output of bromine from a BCDMH feeder to achieve the desired bromine residual, requires much less water flow to the feeder for BCDMH than DBDMH. Since the source of water and the feeder are often quite distant from each other, a need for providing a new line just for the feeder is disadvantageous and expensive. But, pursuant to this invention, oftentimes excess water supplied to existing equipment near the feeder can be employed thereby eliminating the need for installation of a new special water line to the feeder. In other words, since BCDMH requires less than half the water flow of DBDMH, in many situations this water source would have sufficient flow for BCDMH while that same flow would be insufficient for DBDMH. […]

Question: With `CC1(C)C(=O)N(Cl)C(=O)N1Br` [BCDMH, N,N′-bromochloro-5,5-dimethylhydantoin] as the molecule, how does the water solubility read?
Answer: 890 ppm

Question: With `CC1(C)C(=O)N(Br)C(=O)N1Br` [DBDMH, 1,3-dibromo-5,5-dimethylhydantoin] as the molecule, how does the water solubility read?
Answer: 405 ppm
